In patent US12290651B2, “Devices and methods for the treatment of body surface disorders” (Verrica Pharmaceuticals Inc., priority 2017, dated 2025):
“And” between values parts separate entries of the source, which are not always exact repeats. Equal values may be shown once.

Assay: Pharmacokinetic results from Phase II clinical trial: systemic exposure (plasma cantharidin) after topical application (Example 3)
Format: in vivo, human
Description: This example describes pharmacokinetic results from a Phase II clinical trial for the treatment of skin lesion resulting from Molluscum contagiosum. Patients received administrations of the cantharidin composition in Table 2 to Molluscum contagiosum lesions every 21 days for a maximum of 4 sessions or until complete clearance. Blood samples for systemic exposure evaluation were collected on Day 1, prior to the drug application, and 2 (±30 minutes), 6 (±1 hour) and 24 (±3 hours) hours post-application. The average age of the subjects was 7±3.5 years. The average body weight of the subjects was 58±34.6 lb. The average number of lesions per subject was 43.7±24.2.

C[C@@]12C(=O)OC(=O)[C@]1(C)[C@H]1CC[C@@H]2O1 [cantharidin]
plasma concentration of cantharidin (all subjects, all times sampled (2, 6, 24 hours post-application)): less than 3.3 ng/ml | Exposure (plasma concentration of cantharidin) (one line per subject, topical cantharidin composition of Table 2 on molluscum lesions, blood at 2, 6 and 24 hours post-application on Day 1, LLOQ 2.5 ng/ml): <2.5 ng/ml (16×) and 3.3 ng/ml | subjects with plasma concentration of cantharidin above the lower limit of quantification (2.5 ng/ml) (seventeen subjects): Only one of the seventeen subjects | plasma concentration of cantharidin (subjects as young as 2 years old, having over 100 lesions, having genital lesions, with as many as 2.26 lesions per lb: below LLOQ): < 2.5 ng/mL
